Experimental data taken from ChEMBL document CHEMBL1201862, “PubChem BioAssay data set” (2004).
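Method: 48-hour compound exposure of cells in 96-well plates, five concentrations, linear interpolation of endpoints. At the GI50, growth is halved.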 Activity calls are given as the source filed them. Rule as the data show it: active = GI50 up to about 1.1 µM and inactive = higher.

Key:
Experiment in all cases: NCI anticancer screen, dose series, 48 h
ACHN = tested on: ACHN
RXF 393 = tested on: RXF 393
A498 = tested on: A498
TK-10 = tested on: TK-10
OVCAR-8 = tested on: OVCAR-8
MOLT-4 = tested on: MOLT-4
NCI-H460 = tested on: NCI-H460
UACC-257 = tested on: UACC-257
NCI-H23 = tested on: NCI-H23
EKVX = tested on: EKVX
M14 = tested on: M14
SR = tested on: SR
RPMI-8226 = tested on: RPMI-8226
OVCAR-3 = tested on: OVCAR-3
NCI-H522 = tested on: NCI-H522
KM12 = tested on: KM12
SN12C = tested on: SN12C

Measured: GI50

CC(=O)OC1COC(N2CCc3cc([N+](=O)[O-])ccc32)C(OC(C)=O)C1OC(C)=O (stereo unspecified)
inactive: ACHN > 100 µM | RXF 393 > 100 µM | A498 7.23 µM | TK-10 > 100 µM | OVCAR-8 > 100 µM | MOLT-4 > 100 µM | NCI-H460 > 100 µM | UACC-257 > 100 µM | NCI-H23 > 100 µM | EKVX > 100 µM | M14 > 100 µM | SR > 100 µM | RPMI-8226 > 100 µM | OVCAR-3 > 100 µM | NCI-H522 > 100 µM | KM12 > 100 µM

N#CC(C(=O)CCC(=O)Nc1cccc(Cl)c1)c1ccccc1 (stereo unspecified)
inactive: ACHN > 100 µM | RXF 393 > 100 µM | A498 > 100 µM | TK-10 > 100 µM | OVCAR-8 > 100 µM | MOLT-4 > 100 µM | NCI-H460 > 100 µM | UACC-257 > 100 µM | NCI-H23 > 100 µM | EKVX > 100 µM | M14 > 100 µM | SR > 100 µM | RPMI-8226 > 100 µM | OVCAR-3 > 100 µM | NCI-H522 > 100 µM | SN12C > 100 µM | KM12 > 100 µM

CCCOC(=O)C1C(c2ccc(OC)cc2)NC(c2ccc(OC)cc2)C(C(=O)OCCC)S1(=O)=O (stereo unspecified)
inactive: ACHN > 10 µM | RXF 393 > 10 µM | A498 85.3 µM | TK-10 > 10 µM | OVCAR-8 > 10 µM | MOLT-4 > 10 µM | NCI-H460 > 10 µM | UACC-257 > 10 µM | NCI-H23 > 10 µM | EKVX > 10 µM | M14 > 10 µM | SR > 100 µM | RPMI-8226 > 10 µM | OVCAR-3 > 10 µM | NCI-H522 > 10 µM | SN12C > 10 µM | KM12 > 10 µM

O=c1nc2occc2cn1C1CC(O)C(CO)O1 (stereo unspecified)
inactive: ACHN > 100 µM | RXF 393 > 100 µM | A498 > 100 µM | TK-10 > 100 µM | OVCAR-8 > 100 µM | MOLT-4 > 100 µM | NCI-H460 > 100 µM | UACC-257 > 100 µM | NCI-H23 > 100 µM | EKVX > 100 µM | M14 > 100 µM | SR > 100 µM | RPMI-8226 > 100 µM | OVCAR-3 > 100 µM | SN12C > 100 µM | KM12 > 100 µM

CCCCN[C@H]1C2C3CC4C5CC(C42)C1(C)C53 (stereo partly specified)
inactive: ACHN > 100 µM | RXF 393 > 100 µM | A498 > 100 µM | TK-10 > 100 µM | MOLT-4 > 100 µM | NCI-H460 > 100 µM | UACC-257 > 100 µM | EKVX > 100 µM | M14 > 100 µM | SR > 100 µM | RPMI-8226 > 100 µM | OVCAR-3 > 100 µM | NCI-H522 > 100 µM | SN12C > 100 µM | KM12 > 100 µM

Cc1cc(NCCCCCCCNc2cc(C)nc3cc(N)ccc23)c2ccc(N)cc2n1
inactive: ACHN > 100 µM | RXF 393 79.3 µM | A498 43.2 µM | TK-10 > 100 µM | OVCAR-8 36.3 µM | MOLT-4 33.4 µM | NCI-H460 27.2 µM | UACC-257 47.6 µM | NCI-H23 30.8 µM | EKVX 55.6 µM | M14 43 µM | SR 18.6 µM | RPMI-8226 14.8 µM | OVCAR-3 44 µM | NCI-H522 13.7 µM | SN12C 10.5 µM | KM12 20.7 µM

COc1cc2c(OC)cc1CSCc1sc(C)c(c1Br)CSC2
inactive: ACHN > 100 µM | RXF 393 > 100 µM | A498 > 100 µM | TK-10 > 100 µM | OVCAR-8 > 100 µM | MOLT-4 > 100 µM | NCI-H460 > 100 µM | UACC-257 > 100 µM | NCI-H23 > 100 µM | EKVX > 100 µM | M14 > 100 µM | SR 4.16 µM | RPMI-8226 > 100 µM | OVCAR-3 > 100 µM | SN12C > 100 µM | KM12 > 100 µM

NC(=S)N1N=C2c3ccccc3CC[C@H]2[C@@H]1c1ccc(Cl)cc1
inactive: ACHN 24.4 µM | RXF 393 30 µM | A498 35.5 µM | TK-10 45.7 µM | OVCAR-8 31.6 µM | MOLT-4 18.9 µM | NCI-H460 27 µM | UACC-257 25.2 µM | NCI-H23 24.4 µM | EKVX 37.8 µM | M14 28.2 µM | SR 26.2 µM | RPMI-8226 18.6 µM | OVCAR-3 28.2 µM | NCI-H522 9.18 µM | SN12C 30.6 µM | KM12 29 µM

CC(=O)/C=C1/c2ccccc2N(C(C)=O)C1O (stereo unspecified)
inactive: ACHN > 100 µM | RXF 393 > 100 µM | A498 > 100 µM | OVCAR-8 > 100 µM | MOLT-4 > 100 µM | NCI-H460 > 100 µM | UACC-257 > 100 µM | NCI-H23 > 100 µM | EKVX > 100 µM | M14 > 100 µM | SR > 100 µM | RPMI-8226 > 100 µM | OVCAR-3 > 100 µM | SN12C > 100 µM | KM12 > 100 µM

O=C1NC(=S)NC(=O)C1=Cc1cc2c(cc1[N+](=O)[O-])OCO2
inactive: ACHN > 100 µM | RXF 393 > 100 µM | A498 > 100 µM | TK-10 > 100 µM | OVCAR-8 73.3 µM | MOLT-4 51.4 µM | NCI-H460 > 100 µM | UACC-257 > 100 µM | EKVX > 100 µM | M14 77.6 µM | SR 35.9 µM | RPMI-8226 42.2 µM | OVCAR-3 > 100 µM | NCI-H522 > 100 µM | SN12C 74.6 µM | KM12 40.6 µM

Cc1cc(C)c(N)c(C)c1N
inactive: ACHN > 100 µM | RXF 393 > 100 µM | A498 > 100 µM | TK-10 > 100 µM | OVCAR-8 > 100 µM | MOLT-4 > 100 µM | NCI-H460 > 100 µM | UACC-257 > 100 µM | NCI-H23 > 100 µM | EKVX > 100 µM | M14 > 100 µM | SR > 100 µM | RPMI-8226 > 100 µM | OVCAR-3 > 100 µM | NCI-H522 > 100 µM | SN12C > 100 µM | KM12 > 100 µM

Cn1cc(C(=O)NCCC(=N)N)cc1NC(=O)C1=[N+](C)C=C(NC(=O)c2cccc(C(=O)NC3=CC(C(=O)Nc4cc(C(=O)NCCC(=N)N)cn4C)=[N+](C)C3)c2)C1
inactive: ACHN > 100 µM | RXF 393 35.3 µM | A498 > 100 µM | TK-10 > 100 µM | OVCAR-8 > 100 µM | MOLT-4 > 100 µM | NCI-H460 > 100 µM | UACC-257 93.1 µM | NCI-H23 > 100 µM | EKVX > 100 µM | M14 > 100 µM | SR > 100 µM | RPMI-8226 > 100 µM | OVCAR-3 > 100 µM | NCI-H522 > 100 µM | SN12C 88.5 µM | KM12 36.3 µM
